Data on four compounds can be found in ChEMBL document CHEMBL3887000, “Inhibitors of the renal outer medullary potassium channel” (2016).

Molecules are shown by their SMILES.

Assay [1] deals with T1, ATP-sensitive inward rectifier potassium channel 1 (Homo sapiens, UniProt P48048).
T1 sequence (P48048 whole entry): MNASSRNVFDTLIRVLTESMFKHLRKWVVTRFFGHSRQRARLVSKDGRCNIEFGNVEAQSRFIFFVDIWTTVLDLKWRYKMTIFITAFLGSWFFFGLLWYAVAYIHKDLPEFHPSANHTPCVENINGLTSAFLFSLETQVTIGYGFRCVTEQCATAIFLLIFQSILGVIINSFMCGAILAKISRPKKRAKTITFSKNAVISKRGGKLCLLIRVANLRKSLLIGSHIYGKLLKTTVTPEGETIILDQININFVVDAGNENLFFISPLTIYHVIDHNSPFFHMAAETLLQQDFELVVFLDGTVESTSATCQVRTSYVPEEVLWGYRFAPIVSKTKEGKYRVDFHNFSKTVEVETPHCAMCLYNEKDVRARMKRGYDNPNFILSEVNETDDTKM
The assay is described as follows: Thallium Flux Assay: The ROMK channel functional thallium flux assay is performed in 384 wells, using the FLIPR-Tetra instrument. HEK-hKir1.1 cells are seeded in Poly-D-Lysine microplates and kept in a 37° C.-10% CO2 incubator overnight. On the day of the experiment, the growth media is replaced with the FluxOR reagent loading buffer and incubated, protected from light, at ambient temperature (23-25° C.) for 90 min. The loading buffer is replaced with assay buffer test compound followed by 30 min incubation at ambient temperature, where the Thallium/Potassium stimulant is added to the microplate. Step Protocol 1. Seed HEK-hKir1.1 cells (50 ul at 20,000 cells/well) in 384-well PDL coated Microplates 2. Allow cells to adhere overnight in humidified 37° C./10% CO2 incubator 3. Completely remove cell growth media from microplate and replace with 25 ul loading buffer 4. Incubate Microplate at room temperature, protected form light, for 90 min 5. Remove loading buffer and replace with 25 ul 1x Assay Buffer±test compound.Â 6. Incubate microplate at room temperature, protected form light, for 30 min 7. At FLIPR-Tetra 384: Add stimulant (Thallium/Potassium) solution to microplate and monitor fluorescence. Excitation=400 nm, Emission=460 & 580 nm. Collect data for 10 min.Â Data Calculation: The fluorescence intensity of wells containing 3 uM of a standard control ROMK inhibitor of the present invention is used to define the ROMK-sensitive component of thallium flux. Fluorescence in the presence of test compounds is normalized to control values to provide % fluorescence change.

Assay [2] has as its target T1, ATP-sensitive inward rectifier potassium channel 1. The assay is described as follows: Electrophysiology Assay: Block of Kir1.1 (ROMK1) currents was examined by whole cell voltage clamp (Hamill et. al. Pfluegers Archives 391:85-100 (1981)) using the IonWorks Quattro automated electrophysiology platform (Molecular Devices, Sunnyvale, Calif.). Chinese hamster ovary cells stably expressing Kir1.1 channels were maintained in T-75 flasks in cell culture media in a humidified 10% CO2 incubator at 37° C. Prior to an experiment, Kir1.1 expression was induced by overnight incubation with 1 mM sodium butyrate. On the day of the experiment, cells were dissociated with 2.5 ml of Versene (Invitrogen 15040-066) for approximately 6 minutes at 37° C. and suspended in 10 ml of bath solution containing (in mM): 150 NaCl, 10 KCl, 2.7 CaCl2, 0.5 MgCl2, 5 HEPES, pH 7.4. After centrifugation, the cell pellet was resuspended in approximately 4.0 ml of bath solution and placed in the IonWorks instrument. The intracellular solution consisted of (in mM): 80 K gluconate, 40 KCl, 20 KF, 3.2 MgCl2, 3 EGTA, 5 Hepes, pH 7.4. Electrical access to the cytoplasm was achieved by perforation in 0.13 mg/ml amphotericin B for 4 minutes. Amphotericin B (Sigma A-4888) was prepared as a 40 mg/ml solution in DMSO. It is filed as cell-based. (In patch-clamp work, channel activity is measured electrically.)

In general, IC50 refers to the midpoint of a concentration-inhibition curve.

For `Cc1c([C@@H](O)CN2CCC3(CC2)CCN(C[C@H](O)c2ccc4c(c2C)COC4=O)C3)ccc2c1COC2=O`, in assay [1], the IC50 is 1210 nM. Consider `Cc1c([C@@H](O)CN2C(C)CC3CN(CC(O)c4ccc(C#N)cn4)CC32)ccc2c1COC2=O` (single isomer, unassigned), for which the IC50 in assay [2] came out at 39 nM. As to `Cc1c([C@@H](O)CN2CCC3CN(S(=O)(=O)c4ccc(C#N)cc4)CC32)ccc2c1COC2=O` (single isomer, unassigned), the figures for the IC50 in assay [1] and in assay [2] were 402 nM and 62 nM, respectively. In the same order, the values of `Cc1c([C@@H](O)CN2CCC3(CCCN3C[C@H](O)c3ccc4c(c3C)COC4=O)C2)ccc2c1COC2=O` (stereo partly specified) are 91 nM and 11 nM.
